This note sets out measurements from DBAASP.

For orientation: MIC means the lowest concentration that inhibits growth of the organism. Low readings indicate inhibition by little substance, high ones a need for much substance.

What all share (assay): ≥ marks a high value that may be exact or a test limit, other limits are often not marked, values filed in µg/mL are converted to µM
Assay [1] deals with Bacillus subtilis KCCM 11495.
Assay [2] concerns Escherichia coli KCCM 11569.
The test system of assay [3] is Staphylococcus aureus ATCC 25923.
The subject of assay [4] is Pseudomonas aeruginosa ATCC 27853.
Assay [5] has as its system Enterococcus faecalis ATCC 29212.
Assay [6] concerns Streptococcus agalactiae ATCC 12386.
In assay [7] the test system is Escherichia coli ATCC 25922.
Assay [8] relates to Staphylococcus aureus ATCC 29213.
Assay [9] relates to Klebsiella pneumoniae ATCC 13883.
Assay [10] concerns Penicillium digitatum PHI-26.
Assay [11] concerns Salmonella typhimurium KCTC 1926.
The test system of assay [12] is Pseudomonas aeruginosa KCTC 1637.
Assay [13] has as its system Pseudomonas aeruginosa H1001.
The subject of assay [14] is Bacillus subtilis KCTC 3068.
Assay [15] deals with Escherichia coli KCTC 1682.
Assay [16] relates to Staphylococcus epidermidis KCTC 1917.
For assay [17], the system named is Staphylococcus aureus KCTC 1621.
Assay [18] deals with Staphylococcus carnosus KHS.
Assay [19] deals with Klebsiella pneumoniae 08040724.
Assay [20] relates to Bacillus licheniformis X39.
Assay [21] relates to Rhodococcus rhodochrous X15.
Assay [22] deals with Psychrobacter faecalis X29.
In assay [23] the test system is Enterococcus faecalis 981.
The subject of a further assay is Serratia rubidaea X01.
The subject of assay [24] is Bacillus subtilis ATCC 6633.
For assay [25], the system named is Staphylococcus aureus NCTC 10788.
Assay [26] has as its system Staphylococcus aureus ATCC 43300.
Assay [27] concerns Candida albicans ATCC 2002.
For assay [28], the system named is Klebsiella pneumoniae ATCC 43816.
Assay [29] relates to Enterococcus faecium NTCC 12697.
Assay [30] concerns Staphylococcus aureus ATCC 6538.
The subject of assay [31] is Pseudomonas aeruginosa ATCC 9027.
The subject of assay [32] is Pseudomonas aeruginosa CMCCB 10104.
Assay [33] concerns Staphylococcus aureus NCTC 12493.
The test system of assay [34] is Escherichia coli ATCC 8739.

In brackets after ≈: the same amount, converted by molar mass. Several values for one entry are separate records, joined by “and”; a condition that tells them apart may be missing. Equal values may be shown once. A value given as a limit tells only on which side of the number the result lay.

On to `CC(C)C[C@H](NC(=O)CNC(=O)[C@H](Cc1cnc[nH]1)NC(=O)[C@H](Cc1cnc[nH]1)NC(=O)[C@H](CC(C)C)NC(=O)[C@H](CC(C)C)NC(=O)[C@H](C)NC(=O)[C@H](CC(N)=O)NC(=O)[C@H](CC(C)C)NC(=O)[C@@H](N)Cc1c[nH]c2ccccc12)C(=O)N[C@@H](CC(N)=O)C(=O)N[C@@H](CS)C(=O)N[C@@H](C)C(=O)N[C@@H](CCCCN)C(=O)NCC(N)=O` [WLNALLHHGLNCAKG], for which the MIC in assay [1] and in assay [2] was ≥ 38.9 µM in each case.

Take `CC[C@H](C)[C@H](NC(=O)CN)C(=O)NCC(=O)N[C@@H](CCCCN)C(=O)N[C@@H](Cc1ccccc1)C(=O)N[C@@H](CC(C)C)C(=O)N[C@@H](Cc1cnc[nH]1)C(=O)N[C@@H](CO)C(=O)N[C@@H](C)C(=O)N[C@@H](CCCCN)C(=O)N[C@@H](CCCCN)C(=O)N[C@@H](Cc1ccccc1)C(=O)N[C@@H](C)C(=O)N[C@@H](CCCCN)C(=O)N[C@@H](C)C(=O)N[C@@H](Cc1ccccc1)C(=O)N[C@H](C(=O)N[C@@H](C)C(=O)N[C@@H](CCC(=O)O)C(=O)N[C@H](C(=O)N[C@@H](CCSC)C(=O)N[C@@H](CC(N)=O)C(=O)N[C@@H](CO)C(N)=O)[C@@H](C)CC)C(C)C` [GIGKFLHSAKKFAKAFVAEIMNS]: the MIC was 10 µM (≈ 25 µg/mL) in assay [3]; 20 µM (≈ 50 µg/mL) in assay [4]; 10 µM (≈ 25 µg/mL) in assay [5]; 0.401 µM (≈ 1 µg/mL) in assay [6]; 2 µM (≈ 5 µg/mL) in assay [7]; 4.01 µM (≈ 10 µg/mL) in assay [8]. The MIC in assay [9] came to 10 µM (≈ 25 µg/mL).

On to `CC[C@H](C)[C@H](NC(=O)CN)C(=O)NCC(=O)N[C@@H](C)C(=O)N[C@H](C(=O)N[C@@H](CC(C)C)C(=O)N[C@H](C(=O)N[C@H](C(=O)N[C@@H](CC(C)C)C(=O)N[C@H](C(=O)N[C@H](C(=O)NCC(=O)N[C@@H](CC(C)C)C(=O)N1CCC[C@H]1C(=O)N[C@@H](C)C(=O)N[C@@H](CC(C)C)C(=O)N[C@H](C(=O)N[C@@H](CO)C(=O)N[C@@H](Cc1c[nH]c2ccccc12)C(=O)N[C@H](C(=O)N[C@@H](CCCCN)C(=O)N[C@@H](CCCN=C(N)N)C(=O)N[C@@H](CCCCN)C(=O)N[C@@H](CCCN=C(N)N)C(=O)N[C@@H](CCC(N)=O)C(=O)N[C@@H](CCC(N)=O)C(N)=O)[C@@H](C)CC)[C@@H](C)CC)[C@@H](C)O)[C@@H](C)O)C(C)C)[C@@H](C)CC)C(C)C` [GIGAVLIVLTTGLPALISWIKRKRQQ], for which the MIC in assay [10] was 8 µM and 15 µM.

On to `CC[C@H](C)[C@H](N)C(=O)N[C@@H](CC(C)C)C(=O)N[C@@H](CCCCN)C(=O)N[C@@H](Cc1c[nH]c2ccccc12)C(=O)N[C@@H](CCCCN)C(=O)N[C@@H](Cc1c[nH]c2ccccc12)C(=O)N1CCC[C@H]1C(=O)N[C@@H](Cc1c[nH]c2ccccc12)C(=O)N[C@@H](Cc1c[nH]c2ccccc12)C(=O)N1CCC[C@H]1C(=O)N[C@@H](Cc1c[nH]c2ccccc12)C(=O)N[C@@H](CCCN=C(N)N)C(=O)N[C@@H](CCCN=C(N)N)C(N)=O` [ILKWKWPWWPWRR], for which the MIC turned out to be 5.16 µM (≈ 10 µg/mL) in assay [11]; 10.3 µM (≈ 20 µg/mL) in assay [12]; 5.16 µM (≈ 10 µg/mL) in [13]; 2.58 µM (≈ 5 µg/mL) in assay [14]; 5.16 µM (≈ 10 µg/mL) in assay [15]; 5.16 µM (≈ 10 µg/mL) in [16]. The same molecule came in with an MIC in [17] of 2.58 µM (≈ 5 µg/mL).

For the molecule `CC[C@H](C)[C@@H]1NC(=O)CNC(=O)[C@@H](NC(=O)[C@H](CCCN=C(N)N)NC(=O)[C@@H](NC(=O)[C@H](CCCCN)NC(=O)[C@H](CC(=O)O)NC(=O)[C@H](CC(C)C)NC(=O)[C@@H](NC(=O)[C@H](CC(N)=O)NC(=O)[C@@H](NC(=O)[C@H](C)NC(=O)[C@H](Cc2ccccc2)NC(=O)[C@H](CCCCN)NC(=O)[C@H](CCCCN)NC(=O)CNC(=O)[C@H](C)NC(=O)[C@H](CCC(=O)O)NC(=O)[C@H](CCCCN)NC(=O)[C@@H](NC(=O)[C@@H](NC(=O)[C@H](CC(N)=O)NC(=O)[C@H](Cc2c[nH]c3ccccc23)NC(=O)[C@H](CC(C)C)NC(=O)CN)[C@@H](C)O)[C@@H](C)CC)[C@@H](C)CC)C(C)C)[C@@H](C)CC)CSSC[C@@H](C(=O)N[C@@H](CCCCN)C(=O)N[C@H](C(=O)O)[C@@H](C)O)NC(=O)CNC(=O)CNC(=O)[C@H](C)NC1=O` [GLWNTIKEAGKKFAINVLDKIRCGIAGGCKT], the MIC in assay [18] was 19 µM (≈ 62.8 µg/mL); in assay [3] it was 150 µM (≈ 496 µg/mL); in [19], ≥ 150 µM; in [20], 19 µM (≈ 62.8 µg/mL); in assay [21] it was 2.3 µM (≈ 7.6 µg/mL); in [22], 4.5 µM (≈ 14.9 µg/mL). In addition, the MIC in assay [7] is 150 µM (≈ 496 µg/mL); in assay [23] it was ≥ 75 µM; in the assay with Serratia rubidaea X01, 4.6 µM (≈ 15.2 µg/mL).

With `CC[C@H](C)[C@@H]1NC(=O)[C@H](CCCCN)NC(=O)[C@@H](NC(=O)[C@H](CCCCN)NC(=O)[C@H](CC(C)C)NC(=O)[C@H](CCCCN)NC(=O)[C@H](CC(=O)O)NC(=O)[C@H](CC(C)C)NC(=O)[C@H](CC(C)C)NC(=O)[C@@H](NC(=O)[C@H](C)NC(=O)[C@H](C)NC(=O)[C@@H](NC(=O)[C@H](CC(N)=O)NC(=O)[C@H](CCCCN)NC(=O)[C@H](C)NC(=O)[C@@H](NC(=O)[C@H](CC(N)=O)NC(=O)[C@H](CCCCN)NC(=O)[C@H](C)NC(=O)[C@@H](NC(=O)[C@H](CC(=O)O)NC(=O)[C@H](CCSC)NC(=O)[C@H](Cc2ccccc2)NC(=O)CN)[C@@H](C)O)C(C)C)C(C)C)[C@@H](C)O)CSSC[C@@H](C(=O)O)NC(=O)CNC(=O)CNC(=O)[C@H]([C@@H](C)O)NC1=O` [GFMDTAKNVAKNVAATLLDKLKCKITGGC], the MIC in assay [24] was 12.5 µM (≈ 37.6 µg/mL); in assay [25], ≥ 32 µM; in [26], > 100 µM; in assay [27] it was 4.81 µM (≈ 14.5 µg/mL); in [3], 2.42 µM (≈ 7.3 µg/mL); in [28] it was ≥ 128 µM. For the same molecule, the MIC in assay [29] is ≥ 256 µM; in assay [30], 25 µM (≈ 75.2 µg/mL); in [31], ≥ 128 µM; in assay [7], 4.81 µM (≈ 14.5 µg/mL); in assay [32], 4.81 µM (≈ 14.5 µg/mL); in assay [33], ≥ 256 µM. In [34], the MIC is ≥ 100 µM.
